Data taken from patent publication US20020091262A1, “Substituted aryl or heteroarylamides having retinoid-like biological activity” (Allergan, priority 1995, published 2002).

Legend:
[1] = target: T1, RXRβ (UniProt P28704); test: Ligand binding assay, RXRβ; details: receptor expressed in Baculovirus; Cheng-Prussof from IC50
T1 construct: All six receptor types were derived from the expressed receptor type (RAR α, β, Γ and RXR α, β, Γ) expressed in Baculovirus
T1 sequence (P28704 1-520): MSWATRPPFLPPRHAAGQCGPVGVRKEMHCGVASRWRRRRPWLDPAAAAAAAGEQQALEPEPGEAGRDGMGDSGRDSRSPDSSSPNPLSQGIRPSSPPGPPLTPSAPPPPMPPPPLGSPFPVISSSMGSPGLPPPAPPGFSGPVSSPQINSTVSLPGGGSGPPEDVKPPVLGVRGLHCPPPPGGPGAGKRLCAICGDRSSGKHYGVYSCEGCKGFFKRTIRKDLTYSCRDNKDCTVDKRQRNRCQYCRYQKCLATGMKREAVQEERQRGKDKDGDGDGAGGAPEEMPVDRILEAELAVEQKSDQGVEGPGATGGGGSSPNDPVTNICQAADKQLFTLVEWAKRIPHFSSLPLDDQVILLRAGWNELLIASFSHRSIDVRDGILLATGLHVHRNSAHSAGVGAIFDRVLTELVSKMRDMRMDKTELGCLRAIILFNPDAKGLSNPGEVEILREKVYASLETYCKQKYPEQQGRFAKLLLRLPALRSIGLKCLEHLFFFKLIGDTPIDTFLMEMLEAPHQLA
Description: (§1) A description of the ligand binding assay is also provided below.
(§2) All binding assays were performed in a similar fashion. All six receptor types were derived from the expressed receptor type (RAR α, β, Γ and RXR α, β, Γ) expressed in Baculovirus. Stock solutions of all compounds were prepared as 10 mM ethanol solutions and serial dilutions carried out into 1:1 DMSO; ethanol. Assay buffers consisted of the following for all six receptor assays: 8% glycerol, 120 mM KCl, 8 mM Tris, 5 mM CHAPS 4 mM DTT and 0.24 mM PMSF, pH-7.4@room temperature.
(§3) All receptor biding assays were performed in the same manner. The final assay volume was 250 μl and contained from 10-40 μg of extract protein depending on receptor being assayed along with 5 nM of [^3H] all-trans retinoic acid or 10 nM [^3H] 9-cis retinoic acid and varying concentrations of competing ligand at concentrations that ranged from 0-10^−5 M. The assays were formatted for a 96 well minitube system. Incubations were carried out at 4° C. until equilibrium was achieved. Non-specific binding was defined as that binding remaining in the presence of 1000 nM of the appropriate unlabeled retinoic acid isomer. […] The wash buffer consisted of 100 mM KCl, 10 mM Tris and either 5 mM CHAPS (RXR α, β, Γ) or 0.5% Triton X-100 (RAR α, β, Γ). The mixture was vortexed and incubated for 10 minutes at 4° C., centrifuged and the supernatant removed. The hydroxyapitite was washed three more times with the appropriate wash buffer. The receptor-ligand complex was adsorbed by the hydroxyapitite. The amount of receptor-ligand complex was determined by liquid scintillation counting of hydroxyapitite pellet.
(§4) After correcting for non-specific binding, IC50 values were determined. […] The IC50 value was determined graphically from a loglogit plot of the data. The […] were determined by application of the Cheng-Prussof equation to the IC50 values, the labeled ligand concentration and the Kd of the labeled ligand.
(§5) The results of ligand binding assay are expressed in Kd numbers.

[2] = target: T2, RXRΓ (UniProt P28705); test: Ligand binding assay, RXRΓ; details: receptor expressed in Baculovirus; Cheng-Prussof from IC50
T2 construct: All six receptor types were derived from the expressed receptor type (RAR α, β, Γ and RXR α, β, Γ) expressed in Baculovirus
T2 sequence (P28705 1-463): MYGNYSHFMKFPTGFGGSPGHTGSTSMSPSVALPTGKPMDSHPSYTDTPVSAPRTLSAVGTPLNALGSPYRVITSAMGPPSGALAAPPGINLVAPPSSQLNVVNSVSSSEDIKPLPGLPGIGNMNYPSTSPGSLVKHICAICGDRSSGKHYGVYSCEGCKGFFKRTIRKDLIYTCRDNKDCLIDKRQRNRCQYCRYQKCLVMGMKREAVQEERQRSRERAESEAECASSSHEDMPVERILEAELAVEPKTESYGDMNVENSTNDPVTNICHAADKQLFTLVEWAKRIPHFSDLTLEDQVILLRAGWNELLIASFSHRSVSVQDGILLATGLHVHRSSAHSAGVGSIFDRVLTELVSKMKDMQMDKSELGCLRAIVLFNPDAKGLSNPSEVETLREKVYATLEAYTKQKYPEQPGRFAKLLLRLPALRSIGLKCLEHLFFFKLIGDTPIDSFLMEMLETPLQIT
Description: as §1, §2, §3, §4, §5

[3] = target: T3, RXRα (Homo sapiens, UniProt P19793); test: Ligand binding assay, RXRα; details: receptor expressed in Baculovirus; Cheng-Prussof from IC50
T3 construct: made in house; used as extract protein
T3 sequence (P19793 1-462): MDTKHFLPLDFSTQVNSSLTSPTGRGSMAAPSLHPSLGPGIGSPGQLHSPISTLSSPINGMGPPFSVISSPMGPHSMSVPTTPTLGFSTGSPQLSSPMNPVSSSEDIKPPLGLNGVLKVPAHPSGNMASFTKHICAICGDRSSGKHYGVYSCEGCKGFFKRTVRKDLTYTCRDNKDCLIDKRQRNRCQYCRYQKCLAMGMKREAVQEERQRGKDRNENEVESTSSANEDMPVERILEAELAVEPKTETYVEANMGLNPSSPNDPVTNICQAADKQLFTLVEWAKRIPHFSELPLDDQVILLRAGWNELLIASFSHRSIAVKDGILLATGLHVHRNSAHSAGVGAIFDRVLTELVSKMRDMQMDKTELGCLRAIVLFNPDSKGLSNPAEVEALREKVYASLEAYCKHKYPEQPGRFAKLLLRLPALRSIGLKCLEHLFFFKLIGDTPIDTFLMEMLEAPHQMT
Description: (§6) A holoreceptor transactivation assay and a ligand binding assay which measure the ability of the compounds of the invention to bind to the several retinoid receptor subtypes, respectively, are described in published PCT Application No. WO W093/11755 (particularly on pages 30-33 and 37-41) published on Jun. 24, 1993, the specification of which is also incorporated herein by reference. A description of the ligand binding assay is also provided below.
as §2
(§7) All receptor biding assays were performed in the same manner. The final assay volume was 250 μl and contained from 10-40 μg of extract protein depending on receptor being assayed along with 5 nM of [^3H] all-trans retinoic acid or 10 nM [^3H] 9-cis retinoic acid and varying concentrations of competing ligand at concentrations that ranged from 0-10^−5 M. The assays were formatted for a 96 well minitube system. Incubations were carried out at 4° C. until equilibrium was achieved. Non-specific binding was defined as that binding remaining in the presence of 1000 nM of the appropriate unlabeled retinoic acid isomer. At the end of the incubation period, 50 μl of 6.25% hydroxyapitite was added in the appropriate wash buffer. The wash buffer consisted of 100 mM KCl, 10 mM Tris and either 5 mM CHAPS (RXR α, β, Γ) or 0.5% Triton X-100 (RAR α, β, Γ). The mixture was vortexed and incubated for 10 minutes at 4° C., centrifuged and the supernatant removed. The hydroxyapitite was washed three more times with the appropriate wash buffer. The receptor-ligand complex was adsorbed by the hydroxyapitite. The amount of receptor-ligand complex was determined by liquid scintillation counting of hydroxyapitite pellet.
as §4
(§8) The results of ligand binding assay are expressed in Kd numbers. (See Chena et al. Biochemical Pharmacology Vol. 22 pp 3099-3108, expressly incorporated herein by reference.)

[4] = target: T4, RARβ (Homo sapiens, UniProt P10826); test: Ligand binding assay, RARβ; details: receptor expressed in Baculovirus; Cheng-Prussof from IC50
T4 construct: made in house; used as extract protein
T4 sequence (P10826 1-455): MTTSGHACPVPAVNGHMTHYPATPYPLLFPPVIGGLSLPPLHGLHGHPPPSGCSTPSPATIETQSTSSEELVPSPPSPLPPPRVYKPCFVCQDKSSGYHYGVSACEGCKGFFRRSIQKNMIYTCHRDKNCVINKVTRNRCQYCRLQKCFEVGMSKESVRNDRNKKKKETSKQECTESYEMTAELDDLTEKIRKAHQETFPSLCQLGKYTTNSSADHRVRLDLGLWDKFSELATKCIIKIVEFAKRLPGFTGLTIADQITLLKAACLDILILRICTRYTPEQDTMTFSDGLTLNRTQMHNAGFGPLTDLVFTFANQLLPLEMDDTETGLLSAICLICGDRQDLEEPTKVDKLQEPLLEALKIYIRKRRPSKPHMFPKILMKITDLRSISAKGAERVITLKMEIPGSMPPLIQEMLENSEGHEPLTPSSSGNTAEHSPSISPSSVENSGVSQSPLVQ
Description: as §6, §2
as §7, with “The wash buffer consisted of 100 mM KCl, 10 mM Tris and either 5 mM CHAPS (RXR α, β, Γ) or 0.5% Triton X-100 (RAR α, β, Γ). The mixture was vortexed and incubated for 10 minutes at 4° C., centrifuged and the supernatant removed. The hydroxyapitite was washed three more times with the appropriate wash buffer. The receptor-ligand complex was adsorbed by the hydroxyapitite.” left out
as §4, with “ligand. […]” for “ligand.”

[5] = target: T5, RARα (Homo sapiens, UniProt P10276); test: Ligand binding assay, RARα; details: receptor expressed in Baculovirus; [3H] all-trans retinoic acid; Cheng-Prussof from IC50
T5 construct: made in house; used as extract protein
T5 sequence (P10276 1-462): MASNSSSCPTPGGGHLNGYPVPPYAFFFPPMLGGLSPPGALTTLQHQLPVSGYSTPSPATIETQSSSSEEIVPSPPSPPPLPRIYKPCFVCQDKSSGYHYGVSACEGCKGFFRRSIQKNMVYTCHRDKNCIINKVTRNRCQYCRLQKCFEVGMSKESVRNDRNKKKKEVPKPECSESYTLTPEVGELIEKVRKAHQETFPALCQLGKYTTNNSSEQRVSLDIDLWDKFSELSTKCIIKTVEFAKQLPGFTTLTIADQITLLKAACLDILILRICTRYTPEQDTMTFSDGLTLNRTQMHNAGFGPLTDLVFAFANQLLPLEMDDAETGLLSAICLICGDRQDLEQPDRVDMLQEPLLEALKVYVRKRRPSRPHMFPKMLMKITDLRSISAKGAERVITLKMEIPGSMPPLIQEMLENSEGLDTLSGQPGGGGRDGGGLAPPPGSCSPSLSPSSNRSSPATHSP
Description: as §6, §2, §7, §4, §8

[6] = target: T6, RARΓ (Homo sapiens, UniProt P13631); test: Ligand binding assay, RARΓ; details: receptor expressed in Baculovirus; Cheng-Prussof from IC50
T6 construct: made in house; used as extract protein
T6 sequence (P13631 1-454): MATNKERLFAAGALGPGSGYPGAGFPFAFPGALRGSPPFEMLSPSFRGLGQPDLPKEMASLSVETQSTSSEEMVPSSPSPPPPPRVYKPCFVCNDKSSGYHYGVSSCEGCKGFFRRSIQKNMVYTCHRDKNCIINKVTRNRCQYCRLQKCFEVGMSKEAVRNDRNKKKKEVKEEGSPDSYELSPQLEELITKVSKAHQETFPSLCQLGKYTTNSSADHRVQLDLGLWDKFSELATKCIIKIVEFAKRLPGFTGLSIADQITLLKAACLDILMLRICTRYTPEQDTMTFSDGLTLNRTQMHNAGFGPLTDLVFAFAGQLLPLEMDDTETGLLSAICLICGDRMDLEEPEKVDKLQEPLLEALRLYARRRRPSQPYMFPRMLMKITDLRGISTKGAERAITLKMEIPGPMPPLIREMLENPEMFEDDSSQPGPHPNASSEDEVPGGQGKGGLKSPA
Description: as §6, §2
as §7, with “The wash buffer consisted of 100 mM KCl, 10 mM Tris and either 5 mM CHAPS (RXR α, β, Γ) or 0.5% Triton X-100 (RAR α, β, Γ). The mixture was vortexed and incubated for 10 minutes at 4° C., centrifuged and the supernatant removed. The hydroxyapitite was washed three more times with the appropriate wash buffer. The receptor-ligand complex was adsorbed by the hydroxyapitite.” left out
as §4, with “ligand. […]” for “ligand.”

Row | Compound | Kd [1] | Kd [2] | Kd [3] | Kd [4] | Kd [5] | Kd [6]
1 | 2-Fluoro-4-[(3′,5′-di-t-butyl)phenylcarbamoyl]benzoic Acid [Compound 6] | > 1000 nM | > 1000 nM | > 1000 nM | – | – | –
2 | CC(C)(C)c1cc(C(=O)Nc2ccc(C(=O)O)c(F)c2)c(O)c(C(C)(C)C)c1 [Compound 8] | > 1000 nM | > 1000 nM | > 1000 nM | > 1000 nM | 77 nM | > 1000 nM
3 | CC(C)(C)c1cc(C(=O)Nc2cc(F)c(C(=O)O)c(F)c2)cc(C(C)(C)C)n1 [Compound 10] | > 1000 nM | > 1000 nM | – | – | 62 nM | –
4 | CC(C)(C)c1cc(C(=O)Nc2cc(F)c(C(=O)O)c(F)c2)cc(C(C)(C)C)c1 [Compound 12] | > 1000 nM | > 1000 nM | – | – | 87 nM | –
5 | CC(C)(C)c1cc(C(=O)Nc2ccc(C(=O)O)c([N+](=O)[O-])c2)cc(C(C)(C)C)n1 [Compound 14] | > 1000 nM | > 1000 nM | – | – | 94 nM | –

The remaining lines, values ahead:

Row | Kd [1] | Kd [2] | Kd [3] | Kd [4] | Kd [5] | Kd [6] | Compound
6 | > 1000 nM | > 1000 nM | > 1000 nM | > 1000 nM | 19 nM | > 1000 nM | CC(C)(C)c1cc(C(=O)Nc2ccc(C(=O)O)cc2)cc(C(C)(C)C)n1 [Compound 4]
7 | > 1000 nM | > 1000 nM | > 1000 nM | > 1000 nM | 37 nM | > 1000 nM | CC(C)(C)c1cc(C(=O)Nc2ccc(C(=O)O)cc2)cc(C(C)(C)C)c1 [Compound 15, reference compound]
